Test results reported in PubChem BioAssay AID330 (DTP/NCI, 2004).
Several values for one entry are separate records, joined by “and”; a condition that tells them apart may be missing. Equal entries are not always repeated. Toxic doses and inconclusive results are not listed. Rule for the calls: active = survival T/C of 150% or more; inactive = T/C below 125% in these data.

System: P388 leukemia ip, CD2F1 mice, survival T/C
Assay: NCI In Vivo Anticancer Drug Screen. Data for tumor model P388 Leukemia (intraperitoneal) in CD2F1 (CDF1) mice
Settings: endpoint: median survival time, higher = longer survival
Method in brief: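 Mice carrying the transplanted tumor received test compound or vehicle. Survival was recorded in each group, and the value is the treated-group measurement divided by that of the vehicle-treated control group.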

[1] = dose: 50.0 mg/kg/injection, schedule: Q01DX009 (ip), vehicle: saline with Tween-80
[2] = dose: 100.0 mg/kg/injection, schedule: Q01DX009 (ip), vehicle: saline with Tween-80
[3] = dose: 200.0 mg/kg/injection, schedule: Q01DX009 (ip), vehicle: saline with Tween-80
[4] = dose: 50.0 mg/kg/injection, schedule: Q01DX009 (ip), vehicle: saline
[5] = dose: 100.0 mg/kg/injection, schedule: Q01DX009 (ip), vehicle: saline
[6] = dose: 200.0 mg/kg/injection, schedule: Q01DX009 (ip), vehicle: saline

Measured: T/C

CN(C)C(=S)S(=O)(=O)CCCCCCS(=O)(=O)C(=S)N(C)C
inactive: dose: 50.0 mg/kg/injection, schedule: Q04DX002 (ip), vehicle: Klucel (hydroxypropylcellulose) (HPC) 102 % of control and 103 % of control | dose: 100.0 mg/kg/injection, schedule: Q04DX002 (ip), vehicle: Klucel (hydroxypropylcellulose) (HPC) 100 % of control and 110 % of control and 114 % of control | dose: 200.0 mg/kg/injection, schedule: Q04DX002 (ip), vehicle: Klucel (hydroxypropylcellulose) (HPC) 107 % of control and 111 % of control and 123 % of control | dose: 300.0 mg/kg/injection, schedule: Q04DX002 (ip), vehicle: Klucel (hydroxypropylcellulose) (HPC) 107 % of control and 109 % of control

O=C(N/N=C/c1cccnc1)C(=O)Nc1cccc(C(F)(F)F)c1
inactive: dose: 6.25 mg/kg/injection, schedule: Q01DX005 (ip), vehicle: Klucel (hydroxypropylcellulose) (HPC) 95 % of control | dose: 12.5 mg/kg/injection, schedule: Q01DX005 (ip), vehicle: Klucel (hydroxypropylcellulose) (HPC) 89 % of control | dose: 25.0 mg/kg/injection, schedule: Q01DX005 (ip), vehicle: Klucel (hydroxypropylcellulose) (HPC) 87 % of control

OC1c2cc(Cl)cc(Cl)c2OC2(N3CCCC3)CCCCC12 (configuration not stated)
inactive: [1] 100 % of control | [2] 96 % of control | [3] 102 % of control

CCC1CC(C)C(O)/C=C/C=C/CC(C)OC(=O)CC(O)C(OC)C1OC1CC(C)(O)C(O)C(C)O1 (configuration not stated)
inactive: dose: 10.5 mg/kg/injection, schedule: Q01DX005 (ip), vehicle: Klucel (hydroxypropylcellulose) (HPC) 112 % of control | dose: 21.0 mg/kg/injection, schedule: Q01DX005 (ip), vehicle: Klucel (hydroxypropylcellulose) (HPC) 102 % of control | dose: 42.0 mg/kg/injection, schedule: Q01DX005 (ip), vehicle: Klucel (hydroxypropylcellulose) (HPC) 105 % of control | dose: 84.0 mg/kg/injection, schedule: Q01DX005 (ip), vehicle: Klucel (hydroxypropylcellulose) (HPC) 102 % of control

C/C=C1/CN2C3CC1C1(C(=O)OC)C(OC(C)=O)[C@]4(C[C@H]21)c1cc(OC)ccc1N(C)C34 (some centres not stated)
inactive: dose: 3.5 mg/kg/injection, schedule: Q01DX005 (ip), vehicle: Klucel (hydroxypropylcellulose) (HPC) 115 % of control | dose: 7.0 mg/kg/injection, schedule: Q01DX005 (ip), vehicle: Klucel (hydroxypropylcellulose) (HPC) 108 % of control | dose: 14.0 mg/kg/injection, schedule: Q01DX005 (ip), vehicle: Klucel (hydroxypropylcellulose) (HPC) 94 % of control | dose: 28.0 mg/kg/injection, schedule: Q01DX005 (ip), vehicle: Klucel (hydroxypropylcellulose) (HPC) 100 % of control

O=Nc1c[nH]c(=O)[nH]c1=O
inactive: [4] 97 % of control | [5] 98 % of control | [6] 100 % of control

CCc1cc2c(cc1-c1csc(C/C(N)=N/O)n1)C(C)(C)CCC2(C)C
inactive: [4] 104 % of control | [5] 103 % of control | [6] 100 % of control

COC1(C)CC(c2ccccc2)=NO1 (configuration not stated)
inactive: dose: 60.0 mg/kg/injection, schedule: Q01DX005 (ip), vehicle: saline with Tween-80 96 % of control | dose: 120.0 mg/kg/injection, schedule: Q01DX005 (ip), vehicle: saline with Tween-80 103 % of control | dose: 240.0 mg/kg/injection, schedule: Q01DX005 (ip), vehicle: saline with Tween-80 96 % of control

NC(Cc1ccccc1I)c1nn[nH]n1 (configuration not stated)
inactive: dose: 25.0 mg/kg/injection, schedule: Q01DX009 (ip), vehicle: saline with Tween-80 107 % of control | [1] 102 % of control and 105 % of control and 111 % of control | [2] 98 % of control and 100 % of control and 95 % of control | [3] 110 % of control and 97 % of control | dose: 400.0 mg/kg/injection, schedule: Q01DX009 (ip), vehicle: saline with Tween-80 100 % of control and 96 % of control

CC(C)(C)OC(=O)NCC(=O)NNC(=O)OC(C)(C)C
inactive: [5] 118 % of control | [6] 118 % of control | dose: 400.0 mg/kg/injection, schedule: Q01DX009 (ip), vehicle: saline 118 % of control

CC(C)(Cc1nc2ccccc2[nH]1)Cc1nc2ccccc2[nH]1
inactive: dose: 7.5 mg/kg/injection, schedule: Q01DX005 (ip), vehicle: Klucel (hydroxypropylcellulose) (HPC) 99 % of control | dose: 15.0 mg/kg/injection, schedule: Q01DX005 (ip), vehicle: Klucel (hydroxypropylcellulose) (HPC) 94 % of control | dose: 30.0 mg/kg/injection, schedule: Q01DX005 (ip), vehicle: Klucel (hydroxypropylcellulose) (HPC) 91 % of control | dose: 60.0 mg/kg/injection, schedule: Q01DX005 (ip), vehicle: Klucel (hydroxypropylcellulose) (HPC) 90 % of control

CCOC(=O)C1CCC/C1=N/Nc1ccc([N+](=O)[O-])cc1[N+](=O)[O-] (configuration not stated)
inactive: dose: 100.0 mg/kg/injection, schedule: Q01DX001 (ip), vehicle: Klucel (hydroxypropylcellulose) (HPC) 94 % of control | dose: 200.0 mg/kg/injection, schedule: Q01DX001 (ip), vehicle: Klucel (hydroxypropylcellulose) (HPC) 93 % of control | dose: 400.0 mg/kg/injection, schedule: Q01DX001 (ip), vehicle: Klucel (hydroxypropylcellulose) (HPC) 93 % of control
